The text below walks through data of publication PMC5750651, “Disposition, Metabolism and Histone Deacetylase and Acetyltransferase Inhibition Activity of Tetrahydrocurcumin and Other Curcuminoids” (Pharmaceutics, 2017).

Read-outs that look alike come from different tables or passages of the source.

The target of one data set is T1, CYP1A2 (Homo sapiens, UniProt P05177).
T1 sequence (P05177 1-516): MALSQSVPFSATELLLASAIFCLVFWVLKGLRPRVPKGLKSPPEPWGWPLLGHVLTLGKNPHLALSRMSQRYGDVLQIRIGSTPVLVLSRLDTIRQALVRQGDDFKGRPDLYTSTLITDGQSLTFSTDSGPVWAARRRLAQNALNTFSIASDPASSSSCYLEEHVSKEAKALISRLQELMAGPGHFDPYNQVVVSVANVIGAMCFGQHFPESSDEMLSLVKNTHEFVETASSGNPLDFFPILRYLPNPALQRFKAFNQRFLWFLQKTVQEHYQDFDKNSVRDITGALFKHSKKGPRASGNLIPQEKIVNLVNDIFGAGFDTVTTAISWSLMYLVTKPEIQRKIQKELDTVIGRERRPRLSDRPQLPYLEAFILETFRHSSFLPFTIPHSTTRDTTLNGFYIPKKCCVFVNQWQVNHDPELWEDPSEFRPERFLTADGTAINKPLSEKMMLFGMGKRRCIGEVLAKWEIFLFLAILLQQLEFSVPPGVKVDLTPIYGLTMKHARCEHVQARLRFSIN
Nature of the data set: Vivid CYP450 screening kit, CYP1A2. The note with it: 0.01-100 μM. Here is the method:
(§1) CYP2C9, CYP3A4, CYP1A2 and CYP2D6 assays were performed to assess metabolism and inhibition of human P450 isozymes involved using Vivid® CYP450 screening kits and CYP450 BACULOSOMES® Plus Reagents. CYP450 BACULOSOMES® Plus Reagents express only one CYP450 enzyme, preventing metabolism by other CYP450s. For CYP2C9, the substrate was BOMF and the positive control inhibitor sulfaphenazole; for CYP3A4, DBOMF was the substrate and ketoconazole the positive control inhibitor; for CYP1A2, the substrate was EOMCC and the positive control inhibitor naphthoflavone; for CYP2D6, the substrate was EOMCC and the positive control inhibitor quinidine. The assays were performed using the excitation and emission wavelengths recommended by the manufacturer. […] The plate was incubated for 10 min at room temperature (25 ± 1 °C) on a plate shaker. Then, 10 μL of Vivid® Substrate was added to each well to start the reaction. […] The assay was done in triplicate. The reading was performed at 1 min intervals for 60 min. Inhibition was calculated as (1 − (X − B/A − B)) × 100%, where X was the average of compound fluorescence, A was the average of solvent control and B was the average of inhibition in the presence of positive inhibitor control. The percent inhibition was calculated relative to a fixed concentration of the positive control. […]

The next data set has as its target T2, HDAC1 (Homo sapiens, UniProt Q13547).
T2 construct: purchased Cayman 10011564
Nature of the data set: HDAC1 inhibitor screening assay kit (fluorescence). The data set is classed as biochemical.

The next data set has as its target T3, COX-2 (Homo sapiens, UniProt P35354).
T3 construct: purchased Cayman Chemical 560131
T3 sequence (P35354 18-604): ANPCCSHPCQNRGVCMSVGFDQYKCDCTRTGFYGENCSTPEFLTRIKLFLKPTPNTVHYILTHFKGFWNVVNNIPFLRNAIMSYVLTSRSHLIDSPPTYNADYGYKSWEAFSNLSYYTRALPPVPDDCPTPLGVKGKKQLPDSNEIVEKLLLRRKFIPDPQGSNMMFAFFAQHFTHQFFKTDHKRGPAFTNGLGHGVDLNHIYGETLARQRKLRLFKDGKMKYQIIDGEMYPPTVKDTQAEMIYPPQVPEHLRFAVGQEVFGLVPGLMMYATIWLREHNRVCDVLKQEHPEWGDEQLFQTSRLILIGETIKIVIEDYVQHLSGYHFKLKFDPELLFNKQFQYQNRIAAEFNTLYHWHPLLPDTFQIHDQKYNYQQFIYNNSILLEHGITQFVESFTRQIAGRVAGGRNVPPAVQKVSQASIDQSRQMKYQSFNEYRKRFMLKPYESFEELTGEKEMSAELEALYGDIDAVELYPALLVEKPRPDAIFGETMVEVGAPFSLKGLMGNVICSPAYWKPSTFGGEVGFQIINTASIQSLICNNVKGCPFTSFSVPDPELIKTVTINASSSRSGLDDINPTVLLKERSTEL
The experiment in a line: COX inhibitor screening assay kit, COX-2. Conditions: for COX-2/COX-1 IC50 ratio: COX-2 IC50 divided by COX-1 IC50. The data set is classed as biochemical.

Another data set addresses CYP3A4 (Homo sapiens, UniProt P08684). Nature of the data set: Vivid CYP450 screening kit, CYP3A4. The note with it: 0.01-100 μM, relative to ketoconazole; to a lesser extent than CYP2C9. Here is the method:
as §1

Another data set relates to Sup-T1 cells. The experiment in a line: Cellular growth inhibition assay (MTS). The note with it: for IC50: Homo sapiens. It is filed as cell-based. Here is the method: The CellTiter 96® AQueous One Solution Cell Proliferation Assay (MTS, Promega, Madison, WI, USA) was used to measure proliferation inhibition of cultured cells. Briefly, Sup-T1 cells were cultured in RPMI 1640 supplemented with 10% FBS and 1% penicillin/streptomycin at 37 °C and 5% CO2. […] The MTS reagent was added and incubated for 4 h. […] Sup-T1 cells were used in this study because curcuminoids are thought in part to work via an HDAC inhibitor mechanism and as some HDACs are approved for some T-cell lymphomas, we used Sup-T1 cells because they are a T-cell lymphoma cell line that is established. To the best of our knowledge no other study has measured the effects of THC on Sup-T1 cells.
Data for the PCAF and HDAC1 inhibition and viability assays were used to derive percent changes based on no treatment controls. Each of three data sets were then fit to a 4-parameter logistic regression using SigmaPlot 12.2 to derive IC50 values, which were then used to determine the mean and SD.

Data set [1] can be described thus: Pharmacokinetic study of THC after oral gavage, serum and urine by UHPLC-MS/MS. The note with it: rat, 500 mg/kg oral.

T2 sequence (Q13547 whole entry): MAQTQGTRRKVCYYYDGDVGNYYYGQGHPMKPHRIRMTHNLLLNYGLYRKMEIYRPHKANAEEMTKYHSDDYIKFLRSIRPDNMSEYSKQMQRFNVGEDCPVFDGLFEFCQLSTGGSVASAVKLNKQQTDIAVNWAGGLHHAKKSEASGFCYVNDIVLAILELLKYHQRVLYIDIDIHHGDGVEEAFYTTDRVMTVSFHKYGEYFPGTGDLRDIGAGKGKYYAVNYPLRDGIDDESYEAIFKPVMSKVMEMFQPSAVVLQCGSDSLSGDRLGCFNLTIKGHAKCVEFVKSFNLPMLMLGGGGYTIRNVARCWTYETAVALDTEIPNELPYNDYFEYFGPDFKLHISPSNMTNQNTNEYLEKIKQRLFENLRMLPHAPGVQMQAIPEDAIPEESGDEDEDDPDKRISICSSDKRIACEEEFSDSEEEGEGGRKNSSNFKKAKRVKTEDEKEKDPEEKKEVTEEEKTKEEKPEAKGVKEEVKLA
Sequence of CYP3A4 (P08684 whole entry): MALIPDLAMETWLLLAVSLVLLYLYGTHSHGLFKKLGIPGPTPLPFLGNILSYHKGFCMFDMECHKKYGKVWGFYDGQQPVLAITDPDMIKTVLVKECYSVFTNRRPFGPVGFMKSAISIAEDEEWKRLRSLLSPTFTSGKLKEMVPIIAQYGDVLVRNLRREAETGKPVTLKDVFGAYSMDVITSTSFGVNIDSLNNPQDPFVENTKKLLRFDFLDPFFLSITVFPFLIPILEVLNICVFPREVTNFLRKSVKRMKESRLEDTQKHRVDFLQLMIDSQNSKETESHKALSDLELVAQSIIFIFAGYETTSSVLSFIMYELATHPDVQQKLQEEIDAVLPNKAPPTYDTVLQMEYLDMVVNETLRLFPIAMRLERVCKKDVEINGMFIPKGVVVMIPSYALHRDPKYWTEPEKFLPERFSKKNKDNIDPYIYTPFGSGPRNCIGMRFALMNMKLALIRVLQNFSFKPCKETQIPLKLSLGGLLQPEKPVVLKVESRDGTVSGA

What is called IC50 is the concentration that gives 50% inhibition. For `COc1cc(/C=C/C(=O)COC(=O)/C=C/c2ccc(O)c(OC)c2)ccc1O` [Calebin-A, calebin-A], the “CYP1A2 inhibition (in words)” value at CYP1A2 was “did not show a consistent dose-response inhibition”. In addition, the IC50 against HDAC1 (mean ± SD) was found to be 61.3 ± 11 µM; at COX-2 (mean ± SD, read-out: COX-2 IC50), 0.784 ± 2.2 mM; in the data set with Sup-T1 cells (Sup-T1 growth inhibition, MTS, mean ± SD, read-out: Viability IC50) it was 26.2 ± 17 µM. Moreover, the “COX-2/COX-1 IC50 ratio” value on COX-2 is reported as “around 1”. Moreover, the “CYP3A4 inhibition (in words)” value on CYP3A4 is on record as “dose-dependent inhibition”.
Take `COc1cc(CCC(=O)CC(=O)CCc2ccc(O)c(OC)c2)ccc1O` [THC, tetrahydrocurcumin]: on CYP1A2, the “CYP1A2 inhibition (in words)” value was “did not show a consistent dose-response inhibition”. Further, the “HDAC1 inhibition (in words)” value on HDAC1 (0.1-250 μg/mL) is on record as “no inhibitory activity”. Further, on COX-2, the IC50 stood at 1.35 ± 3.64 mM and the “COX-2/COX-1 IC50 ratio” value is on record as “around 1”. Also, the “CYP3A4 inhibition (in words)” value on CYP3A4 is given as “dose-dependent inhibition”. In data set [1], the “time of peak serum THC concentration” value is recorded as 1 h. The “serum THC maxima of the two redistribution phases” value in data set [1] (at 6 and 24 h) is on record as “about 1 μg/mL”. Besides, the “maximum rate of urinary excretion” value in data set [1] (at 2 h) is reported as “under 3 μg/h”. Further, the “total amount of THC excreted unchanged in urine” value in data set [1] (at 24 h) is “up to 8 μg”. In data set [1] (up to 20 h after the peak), the “serum THC concentration found up to 20 h later” value was “greater than 1 μg/mL”. For the same molecule, in the data set on Sup-T1 cells (SUP-T1, read-out: Viability IC50), the IC50 came to 82 ± 116 µM. Besides, the maximal growth inhibition in the data set on Sup-T1 cells (Sup-T1 cells, up to 100 μM) is ≤ 40%.
